Patent publication US12582639B2, “Preventive, relief or therapeutic use of 2,3,5-substituted thiophene compound against gastrointestinal stromal tumor” (PHAROS IBIO CO., LTD, priority 2020, dated 2026)

What was measured:
GIST-T1 cell line [1] = assay: Growth inhibition of gastrointestinal stromal tumor cell line GIST-T1 (Celltiter glo); type: cell-based; conditions: Homo sapiens, GISTT1; for GI50: GIST-T1, 72 hours
Protocol: Specifically, 100 μl of the GIST-T1 cell line was added to each well of a 96-well plate at a concentration of 5,000 cells/100 μl. After 24 hours of stabilization, 100 μl of the GIST-T1 cell line was treated with 0.5 μl of each of control compounds and PHI-101 (⅓ serial dilution, 10 points) to a final concentration of up to 50 μM, and cultured at 37° C. under 5% CO2 for 72 hours. As the control compounds, imatinib, dasatinib, sunitinib and ponatinib, which are c-kit inhibitors, were used. After culture, the cells were counted using a Celltiter glo assay kit (Promega), and the 50% growth inhibition values (GI50, μM) of the control compounds and PHI-101 were measured.

[2] = test system: c-kit D816V Ba/F3 cell line; assay: Growth inhibition of c-kit D816V mutant Ba/F3 cell line (Celltiter glo); type: cell-based; conditions: for GI50: Mus musculus, BaF3, cKIT D816V Ba/F3, 72 hours
Protocol: Specifically, 100 μl of a Ba/F3 cell line with a c-kit D816V mutation (FIG. 1) was added to each well of a 96-well plate at a concentration of 10,000 cells/100 μl. After 4 hours, 100 μl of the Ba/F3 cell line was treated with 0.5 μl of each of control compounds and PHI-101 (10-point 1:3 serial dilutions) to a final concentration of up to 50 μM, and cultured at 37° C. under 5% CO2 for 72 hours. As the control compounds, imatinib and sunitinib which are c-kit inhibitors were used. After culture, the cells were counted using a Celltiter glo assay kit (Promega), and the 50% growth inhibition values (GI50, μM) of the control compounds and PHI-101 were measured.

Parental Ba/F3 cell line = assay: Growth inhibition of parental Ba/F3 cell line (Celltiter glo); type: cell-based; conditions: Mus musculus, BaF3; Parental Ba/F3, 72 hours
[3] = test system: c-kit phosphorylation and downstream signaling (p-STAT3, p-ERK1/2) in c-kit D816V mutant Ba/F3 cell line; assay: Inhibition of c-kit phosphorylation and downstream signaling in c-kit D816V Ba/F3 cells (Western blot); type: cell-based; conditions: 0.1, 1 and 10 μM, 2 hours; controls sunitinib and dasatinib
Protocol: The inhibitory activities of the control compound and PHI-101 against c-kit phosphorylation and downstream signaling (p-STAT3, p-ERK1/2) in the c-kit D816V mutant Ba/F3 cell line were measured, and as control compounds, sunitinib and dasatinib were used.
(§1) Specifically, the c-kit D816V mutant Ba/F3 cell line was dispensed at a density of 1×10^6 cells/ml, treated with each of the control compounds and PHI-101 at concentrations of 0.1, 1 and 10 μM, and then cultured for 2 hours. Lysates of the cells were obtained using lysis buffer (50 mM Tris-HCl pH7.5, 1% NP40, 1 mM EDTA, 150 mM NaCl, 5 mM, Na3VO4 and 2.5 mM NaF, and a protease inhibitor cocktail). Equal amounts of the cell lysates were electrophoresed using 8% SDS-PAGE gel at 100 V for 1 hour and 30 minutes, and the separated protein was electrically transferred to nitrocellulose membranes. The membranes were blocked with 5% skim milk at room temperature for 30 minutes, and allowed to react with primary antibodies (diluted 1:5,000), including p-c-kit tyrosine 719 (Y719), p-STAT3 tyrosine 705 (Y705) and p-ERK1/2 threonine 202/tyrosine 204 (T202/Y204) at 4° C. for 16 to 20 hours. […] Next, the membranes were washed three times with TBST for 5 minutes each time and treated with a chemiluminescent substrate reagent, and the expression level of the protein was measured by detecting luminescence with an X-ray film in the dark.

[4] = test system: c-kit D816V mutant Ba/F3 cell line; assay: Apoptotic effect, Annexin V-PI FACS analysis; type: cell-based; conditions: 24 hours
Protocol: Specifically, the c-kit D816V mutant Ba/F3 cell line was adjusted to a concentration of 1×10^6 cells/ml and treated with each of PHI-101 at concentrations of 0.1, 1 and 10 μM and the control compound sunitinib at concentrations of 1 and 10 μM for 24 hours. Thereafter, the medium was removed and the cells were washed once with 1 ml PBS. The PBS was removed by centrifugation at 1,000 rpm for 5 minutes. The cells were dissolved in 100 μl of PBS containing Ca^2+ and Mg^2+ and allowed to react with 5 μl of Annexin V for 20 minutes. After completion of the reaction, 400 μl of PBS containing Ca^2+ and Mg^2+ was added, and 5 μl of propidium iodide (PI) was added, and then the degree of apoptotic cell death was analyzed by FACS (fluorescence activated cell sorter) assay using a flow cytometer (FACS-C6, BD).

[5] = test system: c-kit D816V mutant Ba/F3 cell line; assay: Cell cycle FACS assay; type: cell-based; conditions: 1 μM, 24 hours
Protocol: The c-kit D816V mutant Ba/F3 cell line was treated with 1 μM of PHI-101, and then the SubG1/GO-1 population was analyzed by cell cycle FACS assay.
Specifically, the c-kit D816V mutant Ba/F3 cell line was adjusted to a concentration of 1×10^6 cells/ml and treated with each of PHI-101 and the control compound sunitinib at a concentration of 1 μM for 24 hours. Thereafter, the medium was removed, and the c-kit D816V mutant Ba/F3 cell line was fixed in 70% ethanol at 4° C. for 24 hours, and then incubated in a PBS buffer solution containing 40 μg/ml of propidium iodide (PI) and 100 μg/ml of RNase for 30 minutes to completely stain the total DNA. Cell cycle analysis of the stained cells was performed using a flow cytometer (FACS-C6, BD). The proportion of cells in G0/G1 phase, S phase and G2/M phase was measured, and based on the measurement results, the SubG1/GO-1 population was determined.

[6] = test system: c-kit phosphorylation and downstream signaling (p-AKT, p-ERK1/2, p-S6) in GIST-T1 cell line; assay: Inhibition of c-kit phosphorylation and downstream signaling in GIST-T1 cells (Western blot); type: cell-based, human; conditions: 0.01, 0.1 and 1 μM
GIST-T1 cell line [7] = assay: Apoptotic effect, cleaved PARP Western blot in GIST-T1; type: cell-based, human; conditions: 0.01, 0.1 and 1 μM, 24 hours
Protocol: as §1, with “membranes.” for “membranes. The membranes were blocked with 5% skim milk at room temperature for 30 minutes, and allowed to react with primary antibodies (diluted 1:5,000), including p-c-kit tyrosine 719 (Y719), p-STAT3 tyrosine 705 (Y705) and p-ERK1/2 threonine 202/tyrosine 204 (T202/Y204) at 4° C. for 16 to 20 hours.”
A gastrointestinal stromal tumor cell line was treated with PHI-101, and the level of cleaved PARP, an apoptosis marker, was analyzed. […]
Specifically, the apoptotic effect of PHI-101 against the GIST-T1 cell line was analyzed in the same manner as in Example 1-2, except that the GIST-T1 cell line was treated with each of the control compounds at a concentration of 1 μM and PHI-101 at concentrations of 0.01, 0.1 and 1 μM for 24 hours, and that cleaved PARP diluted at 1:3,000 was used as a primary antibody.

[8] = test system: c-kit D816V Ba/F3 cell line xenograft mouse model; assay: Survival time of c-kit D816V Ba/F3 cell line xenograft mouse model; type: in vivo; conditions: oral, daily
Protocol: As mice, 6-8-week-old NOD SCID female mice (18 to 22 g) (GemPharmatech Co., Ltd.) were prepared. Mice were acclimatized for 7 days before use in the experiment, and mice with abnormal health were excluded from the experiment. Mice were bred in a cage (300×180×150 mm) at a 22±3° C. and a relative humidity of 40% to 70% with a 12-hr light/12-hr dark cycle. Mice were allowed access to sterilized dry granular food (Beijing Keaoxieli Feed Co., Ltd., Beijing, China) and water ad libitum for the entire experimental period except for the period specified in the protocol.
50 ml of c-kit D816V mutant Ba/F3 cells suspension cultured in a 75 T flask were placed in a conical tube and centrifuged at 800 rpm for 2 minutes, centrifuged with DPBS (Dulbecco's Phosphate-Buffered Saline, Welgene) at 800 rpm for 2 minutes, washed, and then suspended in RPMI1640 (Welgene) without antibiotics and fetal bovine serum (FBS). Thereafter, the cells were stained with trypan blue and counted with a hemocytometer. […]
Specifically, while the presence or absence of abnormalities in the mouse model of Example 3-1 was monitored daily by checking the skin condition, bleeding and stool status, whether the body weight changed was checked by measuring the mouse weight at intervals of 3 days after the start of oral administration of each drug. […]

| SMILES | GI50 (GIST-T1 cell line [1]) | GI50 [2] | GI50 (Parental Ba/F3 cell line) | inhibitory activity against the c-kit D816V Ba/F3 mutant cell line compared with control compounds ([2]; controls imatinib and sunitinib) | selectivity for c-kit D816V Ba/F3 mutant cell line versus parental Ba/F3 cell line ([2]; from GI50 values of Table 1) | inhibitory activity against p-c-kit (Y719) phosphorylation [3] | induction of apoptosis ([4]; 0.1 μM) | apoptosis, concentration dependence ([4]; 0.1, 1 and 10 μM) | SubG1/GO-1 population [5] | IC50 (GIST-T1 cell line [1]; GIST-T1 proliferation, read-out: IC50 value in GIST-T1 cells) | c-kit phosphorylation and downstream signaling [6] | level of cleaved PARP (apoptosis marker) (GIST-T1 cell line [7]) | prolongation of survival time compared to vehicle-administered group ([8]; 7 mg/kg) | survival time compared to vehicle-administered group ([8]; 80 mg/kg) |
| --- | --- | --- | --- | --- | --- | --- | --- | --- | --- | --- | --- | --- | --- | --- |
| Cc1nc(Nc2ncc(C(=O)Nc3c(C)cccc3Cl)s2)cc(N2CCN(CCO)CC2)n1 [Dasatinib, dasatinib] | 73 nM | – | – | – | – | – | – | – | – | – | – | – | – | – |
| Cc1ccc(NC(=O)c2ccc(CN3CCN(C)CC3)cc2)cc1Nc1nccc(-c2cccnc2)n1 [Imatinib, imatinib] | 64 nM | 11500 nM | 12700 nM | – | – | – | – | – | – | – | – | – | – | – |
| NC(=O)Nc1cc(C#Cc2cccc(F)c2)sc1C(=O)N[C@H]1CCCNC1 [PHI-101, (S)-5-((3-fluorophenyl)ethynyl)-N-(piperidin-3-yl)-3-ureidothiophene-2-carboxamide] | 36 nM | 912 nM | 5010 nM | higher inhibitory activity against the c-kit D816V Ba/F3 mutant cell line than the control compounds | higher selectivity for the c-kit D816V Ba/F3 mutant cell line than for the parental Ba/F3 cell line | higher inhibitory activity against p-c-kit (Y719) phosphorylation than the control compounds | strongly induced apoptosis | apoptosis increased in a concentration-dependent manner | increased | 36 nM | decreased c-kit phosphorylation and downstream signaling in a concentration-dependent manner | increased in a manner dependent on the concentration of PHI-101 | 3 days | doubled |
| CCN(CC)CCNC(=O)c1c(C)[nH]c(/C=C2\C(=O)Nc3ccc(F)cc32)c1C [Sunitinib, sunitinib] | 26 nM | 2650 nM | 13300 nM | – | – | – | – | – | – | – | – | – | – | – |
